Experimental data taken from patent US20230013669A1, “Antibacterial Treatment Using a Cannabinoid and an Active Agent” (priority 2019, published 2023).
Values after ≈ are worked out from the molar mass of the structure shown. Values joined by “and” are separate entries in the source; they are usually repeats but may differ in a detail not shown here. Equal entries are not always repeated. Structures can show the parent of a compound that is named as a salt. Where two headings read alike, the source gives them in different places. Residues, ends and D or L forms follow the SMILES beside them.

Key:
Assay type in all cases: cell-based
[1] = system: Pseudomonas aeruginosa ATCC 27853 (GN_042); assay: MIC micro-broth dilution assay (Example 1 method); settings: for MIC: Pseudomonas aeruginosa
Method: (§4) The plates were covered and incubated at 37° C. for 18-20 h.
(§5) Optical density was read at 600 nm (OD600) using Tecan M1000 Pro Spectrophotometer. […] Analysis was performed using Microsoft Excel.

[2] = system: Acinetobacter baumannii ATCC 19606 (GN_034); assay: MIC micro-broth dilution assay (Example 1 method); settings: for MIC: Acinetobacter baumannii
Method: as §4, §5

[3] = system: Klebsiella pneumoniae ATCC 13883 (GN_003 / GN_004); assay: MIC micro-broth dilution assay (Example 1 method); settings: for MIC: Klebsiella pneumoniae
Method: as §4, §5

[4] = system: Escherichia coli ATCC 25922 (GN_001); assay: MIC micro-broth dilution assay (Example 1 method); settings: for MIC: Escherichia coli
Method: as §4, §5

[5] = system: Acinetobacter baumannii ATCC 19606 Type Strain (GN_034); assay: MIC broth microdilution, 96-well, visual reading (Example 11); settings: GN_034, n=4 replicates; for MIC: Acinetobacter baumannii, ATCC19606, read-out: MIC (Test results), Example 11 Table 41; for MIC (Test results): Example 11 Table 41
Method: (§1) The experiment was performed to investigate the antimicrobial activity of cannabidiol (CBD) against an LPS deficient strain (GN_237 Acinetobacter baumannii, IpxA mutant; Lipid A deficient; obtained by colistin selection from base strain ATCC 19606) and its parent strain (GN_034, Acinetobacter baumannii, ATCC 19606).
(§2) All plates had flat bottom wells and were covered with low-evaporation lids.
(§3) Two biological replicates ×2 technical replicates were conducted on separate days (final n=4). Inhibition of bacterial growth was determined visually, where the MIC was recorded as the lowest compound concentration with no visible growth.

[6] = system: Acinetobacter baumannii AL1851, IpxA mutant; Lipid A deficient (GN_237); assay: as above; settings: for MIC: Acinetobacter baumannii, read-out: MIC (Test results), Example 11 Table 41; for MIC / MIC (Test results): GN_237, n=4 replicates; for MIC (Test results): Example 11 Table 41
Method: as §1, §2, §3

[7] = Pseudomonas aeruginosa ATCC 27853
[8] = Acinetobacter baumannii ATCC 19606
[9] = Klebsiella pneumoniae ATCC 700603

CC(C)(O/N=C(\C(=O)N[C@@H]1C(=O)N2C(C(=O)[O-])=C(C[n+]3ccccc3)CS[C@H]12)c1csc(N)n1)C(=O)O [Ceftazidime]
MIC of Ceftazidime [1, 7]: 4 µg/mL
MIC ([1]; ATCC27853, read-out: MIC of Ceftazidime): 4 µg/mL
MIC of Ceftazidime [2, 8]: 4 µg/mL
MIC ([2]; ATCC19606, read-out: MIC of Ceftazidime, Acinetobacter baumannii ATCC 19606): 4 µg/mL
MIC of Ceftazidime [3, 9]: 128 µg/mL
MIC ([3]; ATCC 13883 / ATCC 700603, read-out: MIC of Ceftazidime, Klebsiella pneumoniae ATCC 700603): 64 µg/mL
MIC of Ceftazidime ([4]; Escherichia coli ATCC 25922): 0.062 µg/mL
MIC ([4]; ATCC25922, read-out: MIC of Ceftazidime, Escherichia coli ATCC 25922): 0.06 µg/mL

CO/N=C(\C(=O)N[C@@H]1C(=O)N2C(C(=O)O)=C(COC(N)=O)CS[C@H]12)c1ccco1 [Cefuroxime]
MIC ([1]; ATCC27853, read-out: MIC of Cefuroxime): 256 µg/mL
MIC ([2]; ATCC19606, read-out: MIC of Cefuroxime, Acinetobacter baumannii ATCC 19606): 64 µg/mL
MIC ([2]; ATCC19606, read-out: MIC of cefuroxime, Example 2 Table 8, GN_034): 64 µg/mL
MIC ([2]; ATCC19606, read-out: Minimum Inhibitory Concentration (MIC), Example 2 Table 7, GN_034, compound alone, replicates): > 32 µg/mL
Minimum Inhibitory Concentration (MIC) ([2]; Example 2 Table 7, GN_034, compound alone, replicates, listed as MCC_009386): >32 μg/mL and 64 μg/mL (2×)
MIC ([3]; ATCC 13883 / ATCC 700603, read-out: MIC of Cefuroxime, Klebsiella pneumoniae ATCC 700603): 16 µg/mL
MIC ([4]; ATCC25922, read-out: MIC of Cefuroxime, Escherichia coli ATCC 25922): 2 µg/mL

CCC[C@@H]1C[C@@H](C(=O)N[C@@H]([C@H]2O[C@H](SC)[C@H](O)[C@@H](O)[C@H]2O)[C@H](C)Cl)N(C)C1 [Clindamycin hydrochloride monohydrate]
MIC [5]: 128 µg/mL
MIC (Test results) [5]: 128 μg/mL (2×) and >128 μg/mL
MIC [6]: 4 µg/mL
MIC (Test results) [6]: 4 μg/mL and 8 μg/mL (2×)

C/C(=C\C(=O)OCCCCCCCCC(=O)O)C[C@@H]1OC[C@H](C[C@@H]2O[C@H]2[C@@H](C)[C@H](C)O)[C@@H](O)[C@H]1O [Mupirocin]
MIC [5]: 128 µg/mL (≈ 256 µM)
MIC (Test results) [5]: 128 µg/mL (≈ 256 µM)
MIC [6]: 32 µg/mL (≈ 63.9 µM)
MIC (Test results) [6]: 16 µg/mL (≈ 32 µM)

CC(=O)N[C@H](C(=O)N[C@H](CO)C(=O)N[C@H]1CCNC(=O)[C@H]([C@@H](C)O)NC(=O)[C@H](CCN)NC(=O)[C@H](CCN)NC(=O)[C@H](CC(C)C)NC(=O)[C@@H](Cc2ccccc2)NC(=O)[C@H](CCN)NC1=O)[C@@H](C)O [Spero Potentiator SPR741] (HELM PEPTIDE1{[ac].T.[dS].[Dab].[Dab].[dF].L.[Dab].[Dab].T}$PEPTIDE1,PEPTIDE1,4:R3-10:R2$$$V2.0)
MIC of Spero Potentiator SPR741 ([1]; Pseudomonas aeruginosa ATCC 27853, alone): 64.00 µg/mL and 64 µg/mL
MIC of Spero Potentiator SPR741 ([2]; Acinetobacter baumannii ATCC 19606, alone): >128 µg/mL and >64 µg/mL
MIC of Spero Potentiator SPR741 ([3]; Klebsiella pneumoniae ATCC 700603 (so in the source), alone): >128 µg/mL and >64 µg/mL
MIC of Spero Potentiator SPR741 ([4]; Escherichia coli ATCC 25922, alone): 64 µg/mL and 128 µg/mL

CC1(C)S[C@@H]2[C@H](NC(=O)[C@H](C(=O)O)c3ccsc3)C(=O)N2[C@H]1C(=O)O [Ticarcillin]
MIC of Ticarcillin [1, 7]: 16 µg/mL
MIC ([1]; ATCC27853, read-out: MIC of Ticarcillin, Pseudomonas aeruginosa ATCC 27853): 32 µg/mL
MIC ([2]; ATCC19606, read-out: MIC of Ticarcillin): 4 µg/mL
MIC ([3]; ATCC 13883 / ATCC 700603, read-out: MIC of Ticarcillin): 128 µg/mL
MIC ([4]; ATCC25922, read-out: MIC of Ticarcillin): 8 µg/mL

Colistin
MIC of Colistin [1, 7]: 1.00 µg/mL and 1 µg/mL
MIC of Colistin [2, 8]: 1.00 µg/mL and 1 µg/mL
Minimum Inhibitory Concentration (MIC) ([2]; Example 3 Table 11, GN_034, compound alone, replicates): 1 µg/mL
MIC of Colistin ([2]; Example 3 Table 12, GN_034): 1 µg/mL
MIC of Colistin [3, 9]: 0.50 µg/mL and 0.5 µg/mL
MIC of Colistin ([4]; Escherichia coli ATCC 25922): 0.50 µg/mL and 0.5 µg/mL
Minimum Inhibitory Concentration (MIC) ([4]; Example 3 Table 11, GN_001, compound alone, replicates, listed as MCC_000094): 0.25 μg/mL and 0.5 μg/mL and 2 μg/mL (2×)
MIC of Colistin ([4]; Example 3 Table 12, GN_001): 0.5 µg/mL
activity alone ([6]; Example 11, Lipid A deficient GN_237): resistant

Colistin Sulfate
MIC (Test results) [5]: 1 µg/mL
MIC (Test results) [6]: >128 μg/mL (2×) and 128 μg/mL (2×)

Gentamycin
MIC (Test results) [5]: 32 μg/mL (2×) and 64 μg/mL (2×)
MIC (Test results) [6]: 1 μg/mL (2×) and 2 μg/mL and 0.5 μg/mL

Teicoplanin
MIC (Test results) [5]: >128 µg/mL
MIC (Test results) [6]: 0.25 μg/mL (2×) and 0.5 μg/mL
